The values that follow come from article PMC12736120, “First-in-Human Phase I Clinical Trial of SLC-391, a Novel and Selective AXL Inhibitor, in Patients with Advanced Solid Tumours” (Pharmaceuticals, 2025).

Assay [1] deals with MER. The conditions noted are these: stated in the Introduction, no reference given; read-out: IC50 against MER; cited from earlier work.
For assay [2], the system named is advanced solid tumours. Kind of assay: Preliminary efficacy, disease assessment by RECIST 1.1 / mRECIST. It counts as in vivo, human. As to conditions: for best percent change in target lesion diameter (decrease): one subject. As to the method: Disease assessments were performed according to RECIST 1.1 [20, 21] and included imaging and physical examination as appropriate for disease type and location. Disease assessments were completed at screening (within 30 days of C1D1) and every 3 cycles (±7 days) relative to C1D1 until objective disease progression, study drug discontinuation, or withdrawal of informed consent.

Assay [3] relates to multiple solid tumour and haematological tumour models. Set-up: method as in PMID 33786587, doi:10.1158/1538-7445.AM2014-2716, doi:10.1158/1538-7445.AM2014-1746, doi:10.1158/1538-7445.AM2015-5393, doi:10.1158/1538-7445.AM2017-4196. The conditions noted are these: alone or in combination with chemotherapy or immune checkpoint blockade; models including lung cancer, colon cancer, CML, AML; cited from earlier work.

Turning to `Nc1ncc(-c2cnn(C3CCNCC3)c2)cc1-c1nnc(CC2CC2)o1` [SLC-391, 3-(5-[cyclopropylmethyl]-1,3,4-oxadiazol-2-yl)-5-(1-[piperidin-4-yl]-1H-pyrazol-4-yl)-pyridin-2-amine], the IC50 (as a rule, the concentration needed to halve the response being measured) in assay [1] was 44 nM. Further, the “rate of stable disease” value in assay [2] (150 mg BID (3/6)) is on record as 50.0%. The “best overall response (BOR) of stable disease” value in assay [2] (NSCLC) is 4/16; in assay [2] (appendix adenocarcinoma), 1/1; in assay [2] (head and neck cancer), 1/1; in assay [2] (mammary adenocarcinoma), 1/1; in assay [2] (melanoma), 1/1; in assay [2] (mesothelioma) it was 4/4. In addition, the “subjects with stable disease” value in assay [2] (RECIST 1.1 or modified RECIST (mesothelioma)) is listed as 12 of 35 subjects. The compound further returned a clinical benefit rate in assay [2] (all subjects (N = 35), monotherapy) of 34.3%. Further, the “longest duration of stable disease” value in assay [2] (monotherapy) is on record as 318 days. Besides, the “patients with stable disease for more than half a year” value in assay [2] (monotherapy, all stage IV, pretreated) is recorded as “six”. The “best percent change in target lesion diameter (decrease)” value in assay [2] (50 mg QD, at cycle 7) was 26.7%; in assay [2] (110 mg BID, on day 275), 22.2%; in assay [2] (150 mg BID, at the end of treatment visit), 8.9%; in assay [2] (150 mg QD, at cycle 7), 10.7%. For the same compound, the tumour growth inhibition entry in assay [3] is reported as “results in tumour growth inhibition”.
